# Reference: ChEMBL document CHEMBL2069185, “Eunicidiol, an anti-inflammatory dilophol diterpene from Eunicea fusca” (J Nat Prod, 2012)
# Assays:
# [1] = system: Mus musculus; experiment: Antiinflammatory activity in CD1 mouse ear edema model assessed as reduction in phorbol myristate acetate-induced edema administered topically at right ear 1 hr before phorbol myristate acetate challenge and measured 6 to 24 hrs post dose; assay type: functional
# [2] = system: Mus musculus; experiment: Toxicity in CD1 mouse model phorbol myristate acetate-induced ear edema model at 0.1 mg/ear administered topically at right ear 1 hr before phorbol myristate acetate challenge and measured 24 hrs post dose; assay type: organism-based; settings: in vivo, topical_or_ocular
# [3] = system: Mus musculus; experiment: Antiinflammatory activity in CD1 mouse ear edema model assessed as reduction in phorbol myristate acetate-induced edema at 0.1 mg/ear administered topically at right ear 1 hr before phorbol myristate acetate challenge and measured 24 hrs post dose; assay type: functional
structure (smiles),measurement,setting,value
CC(=O)O[C@@H]1[C@@H](O[C@H]2CC[C@H](C)[C@@]3(C)C[C@@H](/C(C)=C/C=C/C(C)(C)O)CC[C@H]23)OC[C@@H](O)[C@H]1O,inhibition (INH),[1],85%
C=C1CC/C=C(\C)CC[C@H](/C(C)=C/C=C/C(C)(C)O)C[C@H]1O (relative stereo),Activity,[2],Non-toxic
C/C1=C\C[C@@H](/C(C)=C/C=C/C(C)(C)O)CC/C(C)=C/CC1 [EUNICOL],inhibition (INH),[3],0.1%
same,Activity,[2],Non-toxic
C=C[C@@]1(C)CC[C@H](/C(C)=C/C=C/C(C)(C)O)C[C@@H]1C(=C)C [FUSCOL],Activity,[2],Non-toxic
C=C[C@@]1(C)CC[C@H](/C(C)=C/C=C/C(C)(C)O[C@@H]2OC[C@@H](O)[C@@H](O)[C@@H]2O)C[C@@H]1C(=C)C [FUSCOSIDE B],inhibition (INH),[1],52%
